Measurements taken from ChEMBL document CHEMBL4311939, “Design and evaluation of novel tetracyclic benzofurans as palm site allosteric inhibitors of HCV NS5B polymerase” (Bioorg Med Chem Lett, 2019).
Converted amounts (≈) assume the structure as drawn.

Tests used:
[1] = Cmax in rat at 650 mg/kg, po using spray dry sample; type: ADME, organism-based; set-up: dose 650 mg/kg, route oral; conditions: in vivo
[2] = AUC in rat at 100 mg/kg, po using spray dry sample; type: ADME, organism-based; conditions: in vivo
[3] = AUC in rat at 650 mg/kg, po using spray dry sample; type: ADME, organism-based; conditions: in vivo
[4] = Cmax in rat at 100 mg/kg, po using spray dry sample; type: ADME, organism-based; set-up: dose 100 mg/kg, route oral; conditions: in vivo
[5] = Cmax in rat at 10 mg/kg, po using spray dry sample; type: ADME, organism-based; set-up: dose 10 mg/kg, route oral; conditions: in vivo
[6] = Apparent permeability in dog MDCK cells; type: ADME, cell-based, Canis lupus familiaris
[7] = AUC in rat at 10 mg/kg, po using spray dry sample; type: ADME, organism-based; conditions: in vivo
[8] = Drug concentration in monkey plasma at 3 mg/kg, po after 24 hrs; type: ADME, organism-based, Macaca mulatta; conditions: rhesus monkey
[9] = Half life in rat at 1 mg/kg, iv; type: ADME, organism-based; conditions: in vivo
[10] = Half life in dog at 0.5 mg/kg, iv; type: ADME, organism-based, Canis lupus familiaris; conditions: in vivo
[11] = Drug concentration in dog plasma at 2 mg/kg, po after 24 hrs; type: ADME, organism-based, Canis lupus familiaris
[12] = Clearance in monkey at 1 mg/kg, iv; type: ADME, organism-based, Macaca mulatta; conditions: rhesus monkey, in vivo
[13] = AUC in monkey at 3 mg/kg, po; type: ADME, organism-based, Macaca mulatta; conditions: rhesus monkey, in vivo
[14] = molecular target: T1, Nuclear receptor subfamily 1 group I member 2 (Homo sapiens, UniProt O75469); test: Transactivation of PXR (unknown origin); type: ADME
T1 sequence (O75469 whole entry): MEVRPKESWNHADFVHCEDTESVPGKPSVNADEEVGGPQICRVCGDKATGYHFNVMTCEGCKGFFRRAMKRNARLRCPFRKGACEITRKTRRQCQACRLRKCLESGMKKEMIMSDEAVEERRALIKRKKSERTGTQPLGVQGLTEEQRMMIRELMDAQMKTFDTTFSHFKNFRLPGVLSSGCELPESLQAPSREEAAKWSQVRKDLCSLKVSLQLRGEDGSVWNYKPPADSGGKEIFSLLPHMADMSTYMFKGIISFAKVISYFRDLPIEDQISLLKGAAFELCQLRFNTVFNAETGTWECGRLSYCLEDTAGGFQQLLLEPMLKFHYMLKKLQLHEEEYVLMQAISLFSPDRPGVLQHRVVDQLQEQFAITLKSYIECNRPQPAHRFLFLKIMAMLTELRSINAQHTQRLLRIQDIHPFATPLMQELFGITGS

[15] = Solubility of the compound in FaSSIF using crystalline sample; type: physicochemical
[16] = Cmax in rat at 5 mg/kg, po; type: ADME, organism-based; set-up: dose 5 mg/kg, route oral; conditions: in vivo
[17] = Tmax in rat at 5 mg/kg, po; type: ADME, organism-based; conditions: in vivo
[18] = Cmax in monkey at 3 mg/kg, po; type: ADME, organism-based, Macaca mulatta; set-up: dose 3 mg/kg, route oral; conditions: rhesus monkey, in vivo
[19] = AUC in dog at 2 mg/kg, po; type: ADME, organism-based, Canis lupus familiaris; conditions: in vivo
[20] = AUC in rat at 5 mg/kg, po; type: ADME, organism-based; conditions: in vivo
[21] = molecular target: Voltage-gated inwardly rectifying potassium channel KCNH2 (Homo sapiens, UniProt Q12809); test: Inhibition of human ERG by patch clamp assay
[22] = Half life in monkey at 1 mg/kg, iv; type: ADME, organism-based, Macaca mulatta; conditions: rhesus monkey, in vivo
[23] = Oral bioavailability in monkey at 3 mg/kg; type: ADME, organism-based, Macaca mulatta; conditions: rhesus monkey, in vivo
Cytochrome P450 3A4 = Cytochrome P450 3A4 (Homo sapiens, UniProt P08684); test: Inhibition of CYP3A4 (unknown origin); type: ADME
[24] = Cmax in dog at 2 mg/kg, po; type: ADME, organism-based, Canis lupus familiaris; set-up: dose 2 mg/kg, route oral; conditions: in vivo
[25] = Oral bioavailability in dog at 2 mg/kg; type: ADME, organism-based, Canis lupus familiaris; conditions: in vivo
[26] = Clearance in dog at 0.5 mg/kg, iv; type: ADME, organism-based, Canis lupus familiaris; conditions: in vivo
[27] = molecular target: Sodium channel protein type 5 subunit alpha (Homo sapiens, UniProt Q14524); test: Inhibition of Nav1.5 (unknown origin)
[28] = Oral bioavailability in rat at 5 mg/kg; type: ADME, organism-based; conditions: in vivo
[29] = Clearance in rat at 1 mg/kg, iv; type: ADME, organism-based; conditions: in vivo
[30] = Drug concentration in rat plasma at 5 mg/kg, po after 24 hrs; type: ADME, organism-based
[31] = molecular target: Voltage-dependent L-type calcium channel subunit alpha-1C (Homo sapiens, UniProt Q13936); test: Inhibition of Cav1.2 (unknown origin)
[32] = Cmax in rat at 300 mg/kg, po using spray dry sample; type: ADME, organism-based; set-up: dose 300 mg/kg, route oral; conditions: in vivo
[33] = AUC in rat at 100 mg/kg, po using conventional sample; type: ADME, organism-based; conditions: in vivo
[34] = AUC in rat at 300 mg/kg, po using spray dry sample; type: ADME, organism-based; conditions: in vivo
[35] = Drug metabolism in solvent assessed as oxidation by measuring cpd 1 formation under air exposure

Voltage-dependent L-type calcium channel subunit alpha-1C, sequence (Q13936 whole entry): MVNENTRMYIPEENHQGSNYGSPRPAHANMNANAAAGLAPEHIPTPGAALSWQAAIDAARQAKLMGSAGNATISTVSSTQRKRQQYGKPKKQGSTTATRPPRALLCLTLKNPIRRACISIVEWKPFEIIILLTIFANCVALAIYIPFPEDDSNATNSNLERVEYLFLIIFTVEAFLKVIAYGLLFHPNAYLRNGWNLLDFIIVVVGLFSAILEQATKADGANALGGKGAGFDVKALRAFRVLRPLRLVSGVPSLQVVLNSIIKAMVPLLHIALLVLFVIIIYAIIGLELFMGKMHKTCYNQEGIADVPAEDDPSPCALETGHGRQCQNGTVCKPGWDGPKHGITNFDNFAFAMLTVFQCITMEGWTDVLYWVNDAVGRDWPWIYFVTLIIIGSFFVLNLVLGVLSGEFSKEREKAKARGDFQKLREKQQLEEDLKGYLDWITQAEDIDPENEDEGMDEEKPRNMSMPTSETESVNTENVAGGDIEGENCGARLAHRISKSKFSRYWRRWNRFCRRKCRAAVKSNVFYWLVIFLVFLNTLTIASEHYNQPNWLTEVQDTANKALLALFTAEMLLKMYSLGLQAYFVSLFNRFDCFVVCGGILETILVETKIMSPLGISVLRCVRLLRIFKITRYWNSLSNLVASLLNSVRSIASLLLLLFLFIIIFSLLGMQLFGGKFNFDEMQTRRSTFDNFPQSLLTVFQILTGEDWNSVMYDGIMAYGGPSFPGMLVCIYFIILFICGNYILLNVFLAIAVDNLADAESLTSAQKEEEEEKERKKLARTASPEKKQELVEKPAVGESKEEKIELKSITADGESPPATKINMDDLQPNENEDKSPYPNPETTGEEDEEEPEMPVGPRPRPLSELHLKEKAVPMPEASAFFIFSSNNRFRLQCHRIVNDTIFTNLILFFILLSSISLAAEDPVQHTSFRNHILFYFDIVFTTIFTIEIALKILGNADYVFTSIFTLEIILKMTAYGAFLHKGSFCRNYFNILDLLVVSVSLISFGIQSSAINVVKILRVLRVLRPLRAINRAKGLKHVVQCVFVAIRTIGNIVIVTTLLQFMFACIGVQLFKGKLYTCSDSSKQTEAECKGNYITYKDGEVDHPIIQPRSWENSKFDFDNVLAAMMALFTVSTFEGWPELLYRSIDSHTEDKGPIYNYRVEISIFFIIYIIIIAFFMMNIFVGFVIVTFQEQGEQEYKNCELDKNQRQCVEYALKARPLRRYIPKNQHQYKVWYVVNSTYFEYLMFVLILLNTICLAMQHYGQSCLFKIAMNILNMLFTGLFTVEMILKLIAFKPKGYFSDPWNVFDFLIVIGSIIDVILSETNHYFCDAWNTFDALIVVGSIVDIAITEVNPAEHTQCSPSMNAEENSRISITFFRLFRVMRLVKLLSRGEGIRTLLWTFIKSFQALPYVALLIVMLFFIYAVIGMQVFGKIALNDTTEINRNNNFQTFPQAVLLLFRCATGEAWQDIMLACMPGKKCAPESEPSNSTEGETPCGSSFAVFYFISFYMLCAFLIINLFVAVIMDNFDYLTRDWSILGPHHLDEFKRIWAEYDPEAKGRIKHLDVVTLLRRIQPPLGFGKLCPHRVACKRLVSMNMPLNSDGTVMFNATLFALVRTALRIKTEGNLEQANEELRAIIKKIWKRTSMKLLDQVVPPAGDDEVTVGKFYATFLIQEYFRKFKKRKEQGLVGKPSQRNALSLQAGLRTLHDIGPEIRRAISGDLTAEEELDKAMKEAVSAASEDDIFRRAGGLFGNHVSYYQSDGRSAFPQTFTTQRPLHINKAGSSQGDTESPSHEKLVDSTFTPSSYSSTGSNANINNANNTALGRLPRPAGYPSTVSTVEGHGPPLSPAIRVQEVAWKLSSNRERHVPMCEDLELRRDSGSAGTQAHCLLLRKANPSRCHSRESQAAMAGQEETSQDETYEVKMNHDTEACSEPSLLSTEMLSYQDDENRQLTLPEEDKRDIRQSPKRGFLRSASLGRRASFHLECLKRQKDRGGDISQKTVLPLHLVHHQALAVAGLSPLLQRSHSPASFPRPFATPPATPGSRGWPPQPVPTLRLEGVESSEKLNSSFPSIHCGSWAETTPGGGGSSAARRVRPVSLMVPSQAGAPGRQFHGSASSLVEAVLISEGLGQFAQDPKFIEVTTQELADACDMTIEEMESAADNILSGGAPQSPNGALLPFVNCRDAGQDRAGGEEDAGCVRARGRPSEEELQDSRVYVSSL
Voltage-gated inwardly rectifying potassium channel KCNH2, sequence (Q12809 whole entry): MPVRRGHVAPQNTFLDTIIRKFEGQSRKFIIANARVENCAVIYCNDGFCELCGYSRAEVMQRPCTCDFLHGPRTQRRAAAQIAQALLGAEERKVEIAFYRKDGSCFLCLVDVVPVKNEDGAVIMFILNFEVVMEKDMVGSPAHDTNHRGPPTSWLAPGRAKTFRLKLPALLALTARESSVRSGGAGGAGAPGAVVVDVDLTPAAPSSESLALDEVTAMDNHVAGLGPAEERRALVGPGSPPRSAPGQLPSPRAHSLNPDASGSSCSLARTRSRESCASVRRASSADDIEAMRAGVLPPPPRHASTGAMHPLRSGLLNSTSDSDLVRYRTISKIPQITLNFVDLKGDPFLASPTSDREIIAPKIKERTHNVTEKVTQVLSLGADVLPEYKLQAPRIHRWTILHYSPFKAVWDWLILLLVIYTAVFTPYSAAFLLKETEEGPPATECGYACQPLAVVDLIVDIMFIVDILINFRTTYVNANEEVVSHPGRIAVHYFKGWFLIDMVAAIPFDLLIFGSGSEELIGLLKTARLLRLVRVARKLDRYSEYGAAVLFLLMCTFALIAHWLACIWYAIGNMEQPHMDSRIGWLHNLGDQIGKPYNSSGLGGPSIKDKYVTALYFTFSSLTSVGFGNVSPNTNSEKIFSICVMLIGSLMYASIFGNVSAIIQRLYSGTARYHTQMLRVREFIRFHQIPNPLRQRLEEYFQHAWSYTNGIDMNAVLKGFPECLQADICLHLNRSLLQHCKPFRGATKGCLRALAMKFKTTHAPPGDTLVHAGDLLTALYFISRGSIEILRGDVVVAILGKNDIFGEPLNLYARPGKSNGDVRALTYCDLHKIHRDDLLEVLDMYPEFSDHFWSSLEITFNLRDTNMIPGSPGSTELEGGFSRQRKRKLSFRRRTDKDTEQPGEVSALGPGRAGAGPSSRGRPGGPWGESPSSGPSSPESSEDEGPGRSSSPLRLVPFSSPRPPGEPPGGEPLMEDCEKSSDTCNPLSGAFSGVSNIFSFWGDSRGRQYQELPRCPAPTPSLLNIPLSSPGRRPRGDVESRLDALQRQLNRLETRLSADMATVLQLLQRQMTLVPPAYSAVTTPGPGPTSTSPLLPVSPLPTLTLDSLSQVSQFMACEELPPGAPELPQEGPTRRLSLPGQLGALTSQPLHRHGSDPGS
Cytochrome P450 3A4, sequence (P08684 whole entry): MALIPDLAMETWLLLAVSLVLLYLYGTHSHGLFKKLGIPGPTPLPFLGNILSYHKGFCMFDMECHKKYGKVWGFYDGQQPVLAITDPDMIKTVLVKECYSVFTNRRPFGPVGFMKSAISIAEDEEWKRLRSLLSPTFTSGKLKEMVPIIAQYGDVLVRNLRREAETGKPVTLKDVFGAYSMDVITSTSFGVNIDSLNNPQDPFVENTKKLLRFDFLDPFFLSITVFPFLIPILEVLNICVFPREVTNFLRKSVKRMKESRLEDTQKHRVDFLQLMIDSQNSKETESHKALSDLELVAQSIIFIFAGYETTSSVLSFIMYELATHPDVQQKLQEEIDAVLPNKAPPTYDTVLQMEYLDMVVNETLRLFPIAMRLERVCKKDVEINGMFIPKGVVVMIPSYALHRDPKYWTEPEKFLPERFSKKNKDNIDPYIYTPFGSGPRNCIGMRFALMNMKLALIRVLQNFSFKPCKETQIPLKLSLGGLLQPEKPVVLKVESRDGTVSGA

In the case of `CNC(=O)c1c(-c2ccc(F)cc2)oc2cc(N(C)S(C)(=O)=O)c(-c3ccc4c(n3)-c3cc5c(F)cccc5n3CO4)cc12` [MK-8876], the Cmax [1] is reported as 12 µM, the AUC [2] is reported as 83 µM·h and the AUC [3] is reported as 226 µM·h. The Cmax [4] was 6.7 µM, the Cmax [5] was 1500 nM and the Papp [6] was 7.9 ×10⁻⁶ cm/s. The AUC [7] was 16 µM·h.
With `CNC(=O)c1c(-c2ccc(F)cc2)oc2cc(N(C)S(C)(=O)=O)c(-c3ccc4c(n3)-c3cc5c(F)cccc5n3CC4)cc12` the concentration at 24 h [8] was 6.3 nM, the half-life [9] was 720 min and the half-life [10] was 780 min. It also gave a concentration at 24 h [11] of 76 nM, a clearance [12] of 11 mL/min/kg and a Cmax [1] of 11 µM. For the same molecule, the AUC [13] was 1.7 µM·h, the EC50 [14] was over 30 µM and the solubility thermodynamic [15] was 4.7 µg/mL (≈ 7.67 µM). For the same molecule, the AUC [2] was 100 µM·h, the Cmax [16] was 950 nM and the Tmax [17] was 4 h. It also gave a Cmax [18] of 320 nM, an AUC [19] of 9.2 µM·h and an AUC [3] of 181 µM·h. It also gave an AUC [20] of 8.8 µM·h, a Cmax [4] of 8.2 µM and an IC50 [21] of over 30 µM. For the same molecule, the half-life [22] was 354 min, the bioavailability [23] was 22% and the Cmax [5] was 4300 nM. It also gave an IC50 (Cytochrome P450 3A4) of over 50 µM, a Cmax [24] of 1300 nM and a bioavailability [25] of 54%. The clearance [26] was 2.9 mL/min/kg, the IC50 [27] was over 30 µM and the bioavailability [28] was 18%. It also gave a Papp [6] of 14.2 ×10⁻⁶ cm/s, a clearance [29] of 2.3 mL/min/kg and a concentration at 24 h [30] of 69 nM. For the same molecule, the AUC [7] was 37 µM·h and the IC50 [31] was 18 µM.
Work on `CNC(=O)c1c(-c2ccc(F)cc2)oc2cc(N(C)S(C)(=O)=O)c(-c3cc4n(c(=O)c3)CCn3c-4cc4c(F)cccc43)cc12` yielded a half-life [9] of 258 min, a Cmax [16] of 190 nM and a Tmax [17] of 1 h. It also gave an AUC [20] of 0.078 µM·h, a bioavailability [28] of 1% and a clearance [29] of 17 mL/min/kg.
`CNC(=O)c1c(-c2ccc(F)cc2)oc2cc(N(C)S(C)(=O)=O)c(-c3ccc4ncn5c6cccc(F)c6cc5c4n3)cc12` showed a concentration at 24 h [8] of 10 nM, a half-life [9] of 504 min and a half-life [10] of 1020 min. It also gave a concentration at 24 h [11] of 130 nM, a clearance [12] of 4.7 mL/min/kg and an AUC [13] of 3.4 µM·h. For the same molecule, the EC50 [14] was over 30 µM, the solubility thermodynamic [15] was 1.02 µg/mL (≈ 1.67 µM) and the AUC [2] was 136 µM·h. For the same molecule, the Cmax [16] was 580 nM, the Cmax [18] was 660 nM and the AUC [19] was 9.4 µM·h. It also gave a Cmax [32] of 5.6 µM, an AUC [20] of 5.2 µM·h and an AUC [33] of 0.67 µM·h. It also gave a Cmax [4] of 8.5 µM, an IC50 [21] of over 30 µM and a half-life [22] of 366 min. For the same molecule, the bioavailability [23] was 20%, the Cmax [5] was 2700 nM and the IC50 (Cytochrome P450 3A4) was over 50 µM. It also gave a Cmax [24] of 840 nM, a bioavailability [25] of 64% and a clearance [26] of 3.2 mL/min/kg. The AUC [34] was 181 µM·h, the IC50 [27] was over 30 µM and the bioavailability [28] was 36%. For the same molecule, the Papp [6] was 10.2 ×10⁻⁶ cm/s, the clearance [29] was 8.5 mL/min/kg and the concentration at 24 h [30] was 110 nM. The AUC [7] was 32 µM·h and the IC50 [31] was 22 µM.
In the case of `CNC(=O)c1c(-c2ccc(F)cc2)oc2cc(N(C)S(C)(=O)=O)c(-c3ccc4ccn5c6cccc(F)c6cc5c4n3)cc12`, the concentration at 24 h [8] is reported as 31 nM, the half-life [9] is reported as 960 min and the half-life [10] is reported as 1320 min. The concentration at 24 h [11] was 140 nM, the clearance [12] was 5.6 mL/min/kg and the AUC [13] was 3.5 µM·h. For the same molecule, the EC50 [14] was over 30 µM, the solubility thermodynamic [15] was 2.9 µg/mL (≈ 4.75 µM) and the Cmax [16] was 450 nM. It also gave a Cmax [18] of 370 nM, an AUC [19] of 6.3 µM·h and an AUC [20] of 7.9 µM·h. It also gave an IC50 [21] of over 30 µM, a half-life [22] of 396 min and a bioavailability [23] of 24%. It also gave an IC50 (Cytochrome P450 3A4) of over 50 µM, a Cmax [24] of 1000 nM and a bioavailability [25] of 43%. The clearance [26] was 2.6 mL/min/kg, the IC50 [27] was over 30 µM and the bioavailability [28] was 26%. It also gave a Papp [6] of under 1.9 ×10⁻⁶ cm/s, a clearance [29] of 4.2 mL/min/kg and a concentration at 24 h [30] of 114 nM. For the same molecule, the IC50 [31] was 18 µM.
In the case of `CNC(=O)c1c(-c2ccc(F)cc2)oc2cc(N(C)S(C)(=O)=O)c(-c3ccc4c(n3)-c3cc5c(F)cccc5n3CN4)cc12`, the concentration at 24 h [8] is reported as 4 nM, the half-life [9] is reported as 228 min and the half-life [10] is reported as 240 min. The concentration at 24 h [11] was 11 nM, the clearance [12] was 7.7 mL/min/kg and the AUC [13] was 1 µM·h. It also gave an EC50 [14] of over 30 µM, a Cmax [16] of 350 nM and a Cmax [18] of 130 nM. It also gave an AUC [19] of 2.3 µM·h, an AUC [20] of 1.4 µM·h and an IC50 [21] of over 30 µM. It also gave a half-life [22] of 234 min, a bioavailability [23] of 9.3% and an IC50 (Cytochrome P450 3A4) of over 50 µM. The Cmax [24] was 410 nM, the bioavailability [25] was 30% and the clearance [26] was 7.9 mL/min/kg. The Drug metabolism [35] was “Metabolite detected”, the IC50 [27] was over 30 µM and the bioavailability [28] was 16%. The Papp [6] was 8.9 ×10⁻⁶ cm/s, the clearance [29] was 16 mL/min/kg and the concentration at 24 h [30] was 2.2 nM. For the same molecule, the IC50 [31] was over 30 µM.
Work on `CNC(=O)c1c(-c2ccc(F)cc2)oc2cc(N(C)S(C)(=O)=O)c(-c3ccc4c(n3)-c3cc5c(F)cccc5n3C4)cc12` yielded a half-life [9] of 576 min, a Cmax [16] of 120 nM and a Tmax [17] of 3 h. It also gave an AUC [20] of 1.1 µM·h, a bioavailability [28] of 4% and a clearance [29] of 5.2 mL/min/kg. For the same molecule, the concentration at 24 h [30] was 10 nM.
